Data reported in PMC10175918 (Communications Biology, 2023).
“Also recorded” adds a separate entry of the source. Read-outs that look alike come from different tables or passages of the source.

Experiments:
Assay in all cases: TGFα-shedding assay-based GPCR screening with chimeric Gα subunit proteins
Type in all cases: cell-based
348 GPCRs [1] = biological target: T1, 348 GPCRs (Homo sapiens, UniProt Q9Y5Y3)
T1 construct: expressed in transfected cells; host or cells: HEK293A

348 GPCRs [2] = biological target: T2, 348 GPCRs (Homo sapiens, UniProt O00421); details: 10µM, Favipiravir 100μM
T2 construct: expressed in transfected cells; host or cells: HEK293A
T2 sequence (O00421 1-344): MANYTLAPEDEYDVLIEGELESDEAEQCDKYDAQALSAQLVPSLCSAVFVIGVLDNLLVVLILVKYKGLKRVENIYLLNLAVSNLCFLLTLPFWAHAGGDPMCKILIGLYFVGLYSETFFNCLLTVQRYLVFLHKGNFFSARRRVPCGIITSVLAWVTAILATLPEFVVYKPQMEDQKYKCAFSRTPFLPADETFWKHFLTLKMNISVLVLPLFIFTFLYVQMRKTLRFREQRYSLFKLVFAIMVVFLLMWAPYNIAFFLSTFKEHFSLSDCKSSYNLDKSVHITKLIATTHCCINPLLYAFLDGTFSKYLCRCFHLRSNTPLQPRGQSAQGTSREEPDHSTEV

348 GPCRs [3] = biological target: T3, 348 GPCRs (Homo sapiens, UniProt P41594); details: 10µM, Favipiravir 100μM
T3 construct: expressed in transfected cells; host or cells: HEK293A

348 GPCRs [4] = biological target: T4, 348 GPCRs (Homo sapiens, UniProt Q7Z7M1); details: 10µM, Favipiravir 100μM
T4 construct: expressed in transfected cells; host or cells: HEK293A

348 GPCRs [5] = biological target: T5, 348 GPCRs (Homo sapiens, UniProt P32246); details: 10µM, Favipiravir 100μM
T5 construct: expressed in transfected cells; host or cells: HEK293A
T5 sequence (P32246 1-355): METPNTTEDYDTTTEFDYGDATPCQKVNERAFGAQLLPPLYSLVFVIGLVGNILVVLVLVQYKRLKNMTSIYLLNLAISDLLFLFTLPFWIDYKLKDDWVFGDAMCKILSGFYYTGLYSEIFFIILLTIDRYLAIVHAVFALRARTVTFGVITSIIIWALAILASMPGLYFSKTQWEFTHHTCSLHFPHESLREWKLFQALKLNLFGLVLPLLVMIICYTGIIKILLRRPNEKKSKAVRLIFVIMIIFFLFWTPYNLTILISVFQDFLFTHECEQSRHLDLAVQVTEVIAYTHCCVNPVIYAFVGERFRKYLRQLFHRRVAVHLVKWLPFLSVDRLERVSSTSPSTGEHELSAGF

348 GPCRs [6] = biological target: 348 GPCRs (Homo sapiens, UniProt P30872); details: 10µM, Favipiravir 100μM
348 GPCRs [7] = biological target: T6, 348 GPCRs (Homo sapiens, UniProt P51810); details: 10µM, Favipiravir 100μM
T6 construct: expressed in transfected cells; host or cells: HEK293A

348 GPCRs [8] = test system: 348 GPCRs
348 GPCRs [9] = biological target: T7, 348 GPCRs (Homo sapiens, UniProt P34969); details: 10µM, Favipiravir 100μM
T7 construct: expressed in transfected cells; host or cells: HEK293A

348 GPCRs [10] = biological target: T8, 348 GPCRs (Homo sapiens, UniProt P49682)
T8 construct: expressed in transfected cells; host or cells: HEK293A
T8 sequence (P49682 1-368): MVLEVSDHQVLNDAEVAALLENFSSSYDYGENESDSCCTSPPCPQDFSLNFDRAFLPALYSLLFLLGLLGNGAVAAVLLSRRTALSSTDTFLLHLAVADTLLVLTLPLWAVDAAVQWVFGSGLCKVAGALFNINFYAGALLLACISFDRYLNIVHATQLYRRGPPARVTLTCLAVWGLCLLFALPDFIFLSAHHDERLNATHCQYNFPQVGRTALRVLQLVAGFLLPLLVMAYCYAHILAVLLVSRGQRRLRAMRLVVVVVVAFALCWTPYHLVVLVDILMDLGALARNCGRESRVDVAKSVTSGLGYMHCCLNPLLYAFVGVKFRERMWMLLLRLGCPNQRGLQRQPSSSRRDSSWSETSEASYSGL

348 GPCRs [11] = biological target: T9, 348 GPCRs (Homo sapiens, UniProt O60883); details: 10µM, Favipiravir 100μM
T9 construct: expressed in transfected cells; host or cells: HEK293A
T9 sequence (O60883 26-481): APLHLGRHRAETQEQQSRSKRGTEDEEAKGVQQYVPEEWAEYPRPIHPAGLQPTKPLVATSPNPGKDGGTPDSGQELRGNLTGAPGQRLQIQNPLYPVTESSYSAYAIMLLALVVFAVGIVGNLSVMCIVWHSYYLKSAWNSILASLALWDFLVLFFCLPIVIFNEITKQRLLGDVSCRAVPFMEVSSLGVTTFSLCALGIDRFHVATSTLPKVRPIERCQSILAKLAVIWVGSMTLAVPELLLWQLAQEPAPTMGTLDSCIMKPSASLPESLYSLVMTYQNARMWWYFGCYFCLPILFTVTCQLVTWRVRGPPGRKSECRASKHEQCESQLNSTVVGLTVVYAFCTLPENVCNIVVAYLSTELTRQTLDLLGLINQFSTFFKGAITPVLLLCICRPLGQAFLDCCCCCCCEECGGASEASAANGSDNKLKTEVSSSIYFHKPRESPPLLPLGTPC

348 GPCRs [12] = biological target: T10, 348 GPCRs (Homo sapiens, UniProt Q9BZJ8)
T10 construct: expressed in transfected cells; host or cells: HEK293A

[13] = CCRL2 (chemokine (C-C motif) receptor-like 2), read-out: % GPCR activation compared to TPA
[14] = GRM5 (glutamate receptor, metabotropic 5), read-out: % GPCR activation compared to TPA
[15] = GPR144 (Adhesion G Protein-Coupled Receptor D2 (ADGRD2)), read-out: % GPCR activation compared to TPA
[16] = CCR1 (chemokine (C-C motif) receptor 1), read-out: % GPCR activation compared to TPA
[17] = SSTR1 (somatostatin receptor 1), read-out: % GPCR activation compared to TPA
[18] = GPR143 (G Protein-Coupled Receptor 143), read-out: % GPCR activation compared to TPA
[19] = EP3 iso6 (prostaglandin E receptor 3 iso6), 10µM, Favipiravir 100μM
[20] = GPR17 short (G protein-coupled receptor 17 short), 10µM, Favipiravir 100μM
[21] = 5-HT7 (5-hydroxytryptamine receptor 7), read-out: % GPCR activation compared to TPA
[22] = GPR37L1 (G Protein-Coupled Receptor 37 Like 1), read-out: % GPCR activation compared to TPA
[23] = read-out: % GPCR activation compared to TPA, GPCR GPR45 (G Protein-Coupled Receptor 45)
[24] = read-out: % GPCR activation compared to TPA, CCRL2 (chemokine (C-C motif) receptor-like 2)
[25] = read-out: % GPCR activation compared to TPA, GRM5 (glutamate receptor, metabotropic 5)
[26] = read-out: % GPCR activation compared to TPA, GPR144 (Adhesion G Protein-Coupled Receptor D2 (ADGRD2))
[27] = read-out: % GPCR activation compared to TPA, CCR1 (chemokine (C-C motif) receptor 1)
[28] = read-out: % GPCR activation compared to TPA, SSTR1 (somatostatin receptor 1)
[29] = read-out: % GPCR activation compared to TPA, GPR143 (G Protein-Coupled Receptor 143)
[30] = GPCR GPR68 long (G protein-coupled receptor 68 long), 10µM
[31] = GPCR LTB4R2B (leukotriene B4 receptor 2), 10µM
[32] = GPCR P2Y13 short (purinergic receptor P2Y, G-protein coupled, 13 short), 10µM
[33] = read-out: % GPCR activation compared to TPA, 5-HT7 (5-hydroxytryptamine receptor 7)
[34] = read-out: % GPCR activation compared to TPA, GPCR CXCR3 (C-X-C motif chemokine receptor 3)
[35] = read-out: % GPCR activation compared to TPA, GPR37L1 (G Protein-Coupled Receptor 37 Like 1)
[36] = read-out: % GPCR activation compared to TPA, GPCR GPR61 (G protein-coupled receptor 61)

T1 sequence (Q9Y5Y3 whole entry): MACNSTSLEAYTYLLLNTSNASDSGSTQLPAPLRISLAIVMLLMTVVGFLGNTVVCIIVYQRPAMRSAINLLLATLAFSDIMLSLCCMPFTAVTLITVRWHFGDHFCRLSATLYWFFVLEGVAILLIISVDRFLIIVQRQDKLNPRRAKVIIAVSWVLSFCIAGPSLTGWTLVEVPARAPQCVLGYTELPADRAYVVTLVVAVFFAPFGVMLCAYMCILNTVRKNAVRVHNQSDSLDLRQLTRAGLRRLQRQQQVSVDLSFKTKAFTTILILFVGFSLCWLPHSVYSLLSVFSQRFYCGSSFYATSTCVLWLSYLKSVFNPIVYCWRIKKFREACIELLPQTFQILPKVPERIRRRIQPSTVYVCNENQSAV
T4 sequence (Q7Z7M1 whole entry): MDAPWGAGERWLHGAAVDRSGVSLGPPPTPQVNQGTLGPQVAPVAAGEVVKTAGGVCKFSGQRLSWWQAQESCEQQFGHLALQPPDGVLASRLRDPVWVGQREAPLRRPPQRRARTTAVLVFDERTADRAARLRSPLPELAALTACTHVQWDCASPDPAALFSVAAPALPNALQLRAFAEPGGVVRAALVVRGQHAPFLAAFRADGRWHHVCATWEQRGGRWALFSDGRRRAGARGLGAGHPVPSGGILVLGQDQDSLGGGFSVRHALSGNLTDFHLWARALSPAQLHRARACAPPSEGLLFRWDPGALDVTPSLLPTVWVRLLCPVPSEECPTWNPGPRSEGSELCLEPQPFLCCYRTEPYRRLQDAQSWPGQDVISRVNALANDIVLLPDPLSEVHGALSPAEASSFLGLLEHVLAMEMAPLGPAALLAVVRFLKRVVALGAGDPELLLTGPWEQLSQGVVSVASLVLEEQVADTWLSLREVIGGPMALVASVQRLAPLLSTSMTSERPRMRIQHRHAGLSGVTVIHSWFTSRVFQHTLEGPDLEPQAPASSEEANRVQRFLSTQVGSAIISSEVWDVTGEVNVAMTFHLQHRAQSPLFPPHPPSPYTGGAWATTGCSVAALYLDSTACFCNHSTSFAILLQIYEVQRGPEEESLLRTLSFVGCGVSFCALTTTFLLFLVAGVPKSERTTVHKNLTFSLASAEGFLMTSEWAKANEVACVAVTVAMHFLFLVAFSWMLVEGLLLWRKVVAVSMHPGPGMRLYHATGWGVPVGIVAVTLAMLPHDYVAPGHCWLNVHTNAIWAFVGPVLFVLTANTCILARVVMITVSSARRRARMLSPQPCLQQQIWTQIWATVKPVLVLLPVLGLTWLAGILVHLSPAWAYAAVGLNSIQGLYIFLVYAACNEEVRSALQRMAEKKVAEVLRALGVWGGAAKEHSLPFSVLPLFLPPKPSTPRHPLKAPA
T6 sequence (P51810 whole entry): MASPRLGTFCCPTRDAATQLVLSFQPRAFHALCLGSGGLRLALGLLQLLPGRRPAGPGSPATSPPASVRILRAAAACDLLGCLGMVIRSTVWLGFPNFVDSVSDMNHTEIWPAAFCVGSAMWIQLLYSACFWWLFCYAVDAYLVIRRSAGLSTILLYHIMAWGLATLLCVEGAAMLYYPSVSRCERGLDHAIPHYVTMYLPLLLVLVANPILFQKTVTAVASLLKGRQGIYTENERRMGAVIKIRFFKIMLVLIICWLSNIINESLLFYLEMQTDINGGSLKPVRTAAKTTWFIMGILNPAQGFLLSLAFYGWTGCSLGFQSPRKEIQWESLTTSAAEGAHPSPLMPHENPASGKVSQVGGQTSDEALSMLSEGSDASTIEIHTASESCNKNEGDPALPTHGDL
Chain of 348 GPCRs (Homo sapiens, UniProt P30872) (P30872 whole entry): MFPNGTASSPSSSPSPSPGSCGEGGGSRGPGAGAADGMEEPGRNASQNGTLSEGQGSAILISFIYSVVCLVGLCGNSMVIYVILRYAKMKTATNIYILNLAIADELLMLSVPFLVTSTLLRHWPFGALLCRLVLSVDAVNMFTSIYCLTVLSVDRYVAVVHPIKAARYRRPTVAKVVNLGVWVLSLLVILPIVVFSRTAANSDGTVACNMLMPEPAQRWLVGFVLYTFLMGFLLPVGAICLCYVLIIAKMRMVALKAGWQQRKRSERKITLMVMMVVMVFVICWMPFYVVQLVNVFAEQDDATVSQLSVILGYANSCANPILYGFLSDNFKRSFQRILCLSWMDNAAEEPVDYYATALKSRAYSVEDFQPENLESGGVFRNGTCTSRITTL
T10 sequence (Q9BZJ8 whole entry): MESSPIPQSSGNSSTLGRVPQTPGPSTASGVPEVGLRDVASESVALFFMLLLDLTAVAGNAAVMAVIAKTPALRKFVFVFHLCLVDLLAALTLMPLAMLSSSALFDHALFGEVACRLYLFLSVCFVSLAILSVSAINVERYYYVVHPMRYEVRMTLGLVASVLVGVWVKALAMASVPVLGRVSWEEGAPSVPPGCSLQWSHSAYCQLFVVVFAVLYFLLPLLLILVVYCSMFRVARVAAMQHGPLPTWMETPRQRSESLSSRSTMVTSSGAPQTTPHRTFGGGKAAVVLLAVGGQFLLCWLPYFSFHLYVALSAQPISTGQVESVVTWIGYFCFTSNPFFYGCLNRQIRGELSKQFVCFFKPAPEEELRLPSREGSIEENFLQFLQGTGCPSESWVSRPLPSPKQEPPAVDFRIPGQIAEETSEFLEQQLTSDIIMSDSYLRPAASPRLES
T7 sequence (P34969 whole entry): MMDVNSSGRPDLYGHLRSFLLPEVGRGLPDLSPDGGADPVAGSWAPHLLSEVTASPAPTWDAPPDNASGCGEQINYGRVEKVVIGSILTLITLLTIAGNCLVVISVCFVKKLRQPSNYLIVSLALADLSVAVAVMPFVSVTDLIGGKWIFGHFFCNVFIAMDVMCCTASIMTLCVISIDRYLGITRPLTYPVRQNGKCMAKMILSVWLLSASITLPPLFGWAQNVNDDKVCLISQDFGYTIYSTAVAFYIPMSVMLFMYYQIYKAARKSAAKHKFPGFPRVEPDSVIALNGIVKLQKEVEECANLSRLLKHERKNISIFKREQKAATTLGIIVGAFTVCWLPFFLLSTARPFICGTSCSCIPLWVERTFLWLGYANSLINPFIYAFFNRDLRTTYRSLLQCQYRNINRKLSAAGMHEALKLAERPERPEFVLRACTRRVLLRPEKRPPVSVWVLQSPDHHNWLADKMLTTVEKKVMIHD
T3 sequence (P41594 21-1212): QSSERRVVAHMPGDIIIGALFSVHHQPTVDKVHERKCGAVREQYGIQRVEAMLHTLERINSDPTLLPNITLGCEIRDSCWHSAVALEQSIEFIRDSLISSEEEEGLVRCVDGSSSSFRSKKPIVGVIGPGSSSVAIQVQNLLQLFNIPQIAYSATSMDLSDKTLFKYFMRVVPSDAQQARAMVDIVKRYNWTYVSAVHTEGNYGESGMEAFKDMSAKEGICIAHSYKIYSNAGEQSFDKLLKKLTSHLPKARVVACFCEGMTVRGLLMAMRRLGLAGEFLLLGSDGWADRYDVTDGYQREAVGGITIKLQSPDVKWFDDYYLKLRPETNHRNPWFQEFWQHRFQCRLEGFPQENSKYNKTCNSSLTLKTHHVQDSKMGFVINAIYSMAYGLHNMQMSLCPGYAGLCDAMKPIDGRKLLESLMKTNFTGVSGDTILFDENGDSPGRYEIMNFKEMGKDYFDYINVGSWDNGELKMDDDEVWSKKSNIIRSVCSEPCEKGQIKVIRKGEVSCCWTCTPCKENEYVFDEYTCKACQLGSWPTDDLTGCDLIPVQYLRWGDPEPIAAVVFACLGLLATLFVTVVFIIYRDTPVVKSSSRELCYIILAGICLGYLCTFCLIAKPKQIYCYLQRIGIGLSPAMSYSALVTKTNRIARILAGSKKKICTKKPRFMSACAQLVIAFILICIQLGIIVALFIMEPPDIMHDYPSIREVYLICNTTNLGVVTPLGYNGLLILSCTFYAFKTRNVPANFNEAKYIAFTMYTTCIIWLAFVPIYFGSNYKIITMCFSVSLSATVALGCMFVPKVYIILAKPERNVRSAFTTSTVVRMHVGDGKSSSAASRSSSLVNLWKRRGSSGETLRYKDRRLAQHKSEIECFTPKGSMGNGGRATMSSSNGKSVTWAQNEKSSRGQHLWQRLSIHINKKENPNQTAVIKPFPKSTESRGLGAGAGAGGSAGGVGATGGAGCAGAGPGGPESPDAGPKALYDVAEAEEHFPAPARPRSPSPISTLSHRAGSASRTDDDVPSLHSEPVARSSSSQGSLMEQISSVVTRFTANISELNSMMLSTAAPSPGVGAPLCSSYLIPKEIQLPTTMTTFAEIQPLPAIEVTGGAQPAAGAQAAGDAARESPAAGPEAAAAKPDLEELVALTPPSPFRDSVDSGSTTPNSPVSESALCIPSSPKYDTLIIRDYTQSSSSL

Row | Structure (SMILES) | activation at 10 µM (348 GPCRs [2]; [13]) | activation at 10 µM (348 GPCRs [3]; [14]) | activation at 100 µM (348 GPCRs [4]; [15]) | activation at 100 µM (348 GPCRs [5]; [16]) | activation at 10 µM (348 GPCRs [6]; [17]) | activation at 100 µM (348 GPCRs [7]; [18]) | % GPCR activation compared to TPA (348 GPCRs [8]; [19]) | % GPCR activation compared to TPA (348 GPCRs [8]; [20]) | activation at 100 µM (348 GPCRs [9]; [21]) | activation at 10 µM (348 GPCRs [11]; [22]) | activation at 10 µM (348 GPCRs [1]; [23]) | activation at 10 µM (348 GPCRs [2]; [24]) | activation at 10 µM (348 GPCRs [3]; [25]) | activation at 100 µM (348 GPCRs [4]; [26]) | activation at 100 µM (348 GPCRs [5]; [27]) | activation at 10 µM (348 GPCRs [6]; [28]) | activation at 100 µM (348 GPCRs [7]; [29]) | % GPCR activation compared to TPA (348 GPCRs [8]; [30]) | % GPCR activation compared to TPA (348 GPCRs [8]; [31]) | % GPCR activation compared to TPA (348 GPCRs [8]; [32]) | also measured
1 | NC(=O)c1nc(F)cnc1O [favipiravir, 6-fluoro-3-hydroxy-2-pyrazinecarboxamide] | 0.0461% | 0.818% | -0.934% | 5.15% | 0.537% | -1.86% | 0.2801% | -0.5013% | 0.723% | -2.32% | – | – | – | – | – | – | – | – | – | – | activation at 100 µM (348 GPCRs [1]; GPCR GPR45 (G Protein-Coupled Receptor 45), 100μM, read-out: % GPCR activation compared to TPA): -0.546%; % GPCR activation compared to TPA (348 GPCRs [8]; GPCR GPR68 long (G protein-coupled receptor 68 long), 100μM): 5.02%; % GPCR activation compared to TPA (348 GPCRs [8]; GPCR LTB4R2B (leukotriene B4 receptor 2), 100μM): -0.02753%; % GPCR activation compared to TPA (348 GPCRs [8]; GPCR P2Y13 short (purinergic receptor P2Y, G-protein coupled, 13 short), 100μM): 1.698%; activation at 100 µM (348 GPCRs [10]; GPCR CXCR3 (C-X-C motif chemokine receptor 3), 100μM, read-out: % GPCR activation compared to TPA): -0.62%; activation at 100 µM (348 GPCRs [12]; GPCR GPR61 (G protein-coupled receptor 61), 100μM, read-out: % GPCR activation compared to TPA): -3.47%
2 | CC(C)OC(=O)[C@H](C)N[P@](=O)(OC[C@H]1O[C@@H](n2ccc(=O)[nH]c2=O)[C@](C)(F)[C@@H]1O)Oc1ccccc1 [sofosbuvir] | – | – | – | – | – | – | -2.666% | 1.814% | – | – | 0.955% | 1.66% | 3.55% | 0.00791% | -1.9% | -0.638% | -1.1% | -162.099% | 1.863% | -2.679% | activation at 100 µM (348 GPCRs [9]; [33]): -1.41%; activation at 10 µM (348 GPCRs [10]; [34]): -2.03%; activation at 10 µM (348 GPCRs [11]; [35]): -1.91%; activation at 10 µM (348 GPCRs [12]; [36]): -0.929%
3 | CCC(CC)COC(=O)[C@H](C)N[P@](=O)(OC[C@H]1O[C@@](C#N)(c2ccc3c(N)ncnn23)[C@H](O)[C@@H]1O)Oc1ccccc1 [remdesivir] | – | – | – | – | – | – | 1.469% | 2.96% | – | – | 0.315% | 0.0536% | 2.34% | 0.938% | 2.29% | 2.79% | -0.638% | -2.927% | -0.9744% | 2.55% | GPCR activation in screening against 348 GPCRs (348 GPCRs [8]; 10 μM remdesivir, molnupiravir, 100 μM favipiravir, chimeric Gα): selectively activate UTS2R; also recorded: selective activator for the urotensin-II receptor (UTS2R); effect on adenosine receptors (348 GPCRs [8]; GPCR assay, adenosine receptors): no effect on adenosine receptors; activation at 100 µM (348 GPCRs [9]; [33]): 1.8%; activation at 10 µM (348 GPCRs [10]; [34]): -0.708%; activation at 10 µM (348 GPCRs [11]; [35]): -2.18%; activation at 10 µM (348 GPCRs [12]; [36]): -3.23%
4 | N#C[C@@]1(c2ccc3c(N)ncnn23)O[C@H](CO)[C@@H](O)[C@H]1O [GS441524] | 2.25% | 1.65% | -0.695% | 4.02% | -0.554% | -1.65% | -0.4587% | 2.36% | 1.1% | -2.03% | – | – | – | – | – | – | – | 3.274% | -0.1822% | 0.9471% | activation at 10 µM (348 GPCRs [1]; GPCR GPR45 (G Protein-Coupled Receptor 45), read-out: % GPCR activation compared to TPA): -0.0256%; activation at 10 µM (348 GPCRs [10]; GPCR CXCR3 (C-X-C motif chemokine receptor 3), read-out: % GPCR activation compared to TPA): -3.08%; activation at 10 µM (348 GPCRs [12]; GPCR GPR61 (G protein-coupled receptor 61), read-out: % GPCR activation compared to TPA): -3.94%
